Data taken from PMC6130872, “Plasmodium vivax Pv12 B-cell epitopes and HLA-DRβ1*-dependent T-cell epitopes in vitro antigenicity” (PLoS ONE, 2018).
No end group written: not given here.

Key:
HLA-DRβ1*0401 = target: T1, HLA-DRβ1*0401 (Homo sapiens, UniProt P01903+P01911, A100K/A169T/F76Y/I96L/K127E/L162R/M171V/N62H/P40V/Q125Y/R42H/S133A/S149N/S66Y/V115G/V209L/W38E); assay: In vitro HLA-DRβ1 binding assay (competitive ELISA, biotinylated control peptide displacement); settings: for inhibition at 250 µM: 24 h, read-out: Binding percentage; for IC50: DRβ1*0401, 50% displacement of biotinylated HA, 4.2 to 250 μM serial dilutions, second order exponential decay fit
T1 construct: endogenous in cells; host or cells: IHW09025 homozygous lymphoblastoid B-cell line (IHWG)

HLA-DRβ1*1302 = HLA-DRβ1*1302 (Homo sapiens, UniProt P01903+P01911, A100E/A169T/K41T/L162R/M171V/P40S/Q125H/Q178H/Q39Y/Q99D/R42S/S66N/T262R/V115G/W38E/Y61H); assay: biochemical; format: binding; settings: for inhibition at 250 µM: 24 h, read-out: Binding percentage; for IC50: 50% displacement of biotinylated TT, 4.2 to 250 μM serial dilutions, second order exponential decay fit
HLA-DRβ1*1302, sequence (P01903 26-254 limits assumed, other chains not shown): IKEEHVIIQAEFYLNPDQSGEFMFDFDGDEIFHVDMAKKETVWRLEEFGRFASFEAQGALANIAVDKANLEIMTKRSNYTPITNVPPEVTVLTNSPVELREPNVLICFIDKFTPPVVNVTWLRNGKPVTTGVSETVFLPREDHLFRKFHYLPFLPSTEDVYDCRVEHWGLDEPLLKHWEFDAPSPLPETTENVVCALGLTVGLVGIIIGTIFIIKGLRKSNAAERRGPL

HLA-DRβ1*0701 = HLA-DRβ1*0701 (Homo sapiens, UniProt P01903+P01911, A100R/A102G/A103Q/D57E/D86V/E43K/F76Y/K127E/L162R/M171V/P40G/Q125H/Q99D/R33Q/R42Y/R54Q/S133A/S66F/T210M/V115G/Y107V/Y59L/Y89S); assay: biochemical; format: binding; settings: for IC50: 50% displacement of biotinylated TT, 4.2 to 250 μM serial dilutions, second order exponential decay fit; for inhibition at 250 µM: 24 h, read-out: Binding percentage
HLA-DRβ1*1101 = target: T2, HLA-DRβ1*1101 (Homo sapiens, UniProt P01903+P01911, A100R/A169T/A87E/I96F/K41T/L162R/M171V/P40S/Q125H/Q178H/Q39Y/Q99D/R42S/S66Y/T262R/V115G/W38E); assay: biochemical; format: binding; settings: for inhibition at 250 µM: 24 h, read-out: Binding percentage; for IC50: DRβ1*1101, 50% displacement of biotinylated HA, 4.2 to 250 μM serial dilutions, second order exponential decay fit
T2 construct: endogenous in cells; host or cells: IHW09043 homozygous lymphoblastoid B-cell line (IHWG)
T2 sequence (P01903 26-254, other chains not shown): as the sequence (P01903 26-254 limits assumed, other chains not shown) above

[1] = system: CD4+ T-lymphocytes (PBMCs); assay: Lymphoproliferation assay (CFSE, flow cytometry); format: cell-based, human
Description: P. vivax-exposed individuals and control group PB samples were taken and placed in citrate phosphate dextrose (CPD) solution in Vacutainer tubes (BD Vacutainer); 40 mL blood was used to obtain PBMCs from gradient centrifugation with Ficoll-Paque PLUS (GE Healthcare) to evaluate the proliferative response against Pv12 peptides.
Two hundred thousand (2 x 10^5) PBMCs per well were seeded in 96-well round-bottomed plates (Costar, Corning Incorporated) in RPMI 1640 medium (Gibco) supplemented with inactivated 10% autologous plasma, 2 g/L sodium bicarbonate, 2 mM L-glutamine, 1 mM sodium pyruvate and100 U/mL Antibiotic-Antimycotic solution (all Gibco). The PBMCs were labelled with carboxyfluorescein diacetate N-succinimidyl ester (CFSE) (5μM) (CellTrace CFSE cell proliferation kit, Molecular Probes, Eugene, OR, USA) and stimulated with each peptide at 10 μg/mL final concentration.
Control PBMCs were stimulated with 5 μg/mL parasite lysate and 2% phytohaemagglutinin (PHA) (Sigma) as positive controls. Low binding peptide (LBP) 39115 was used as negative control in experimental binding assays and a well containing PBMCs with just medium (unstimulated) was used as assay control. The cells were cultured at 37°C in a 5% CO2 atmosphere for 96 hours; assays were carried out in duplicate. Pacific Blue-labelled mouse anti-human CD4 (RPA-T4 clone) (BD Biosciences) antibody was then used for labelling the cells which were read on a FACS Canto II flow cytometer (BD Biosciences). FlowJo software v7.6.5 (FlowJo, LLC) was used for analysing the data and CD4^+ T-lymphocyte proliferation.
Cell proliferation was calculated by relative loss regarding CFSE fluorescence intensity, calculated as the percentage of fluorescence intensity of cells co-cultured with antigen divided by the percentage of co-cultured cells’ fluorescence intensity in the absence of antigen. The results were expressed as stimulation index (SI); a ≥2 value was considered positive.
CD4+ lymphocyte mean fluorescence intensity (MFI) values were used for additional analysis. Cell proliferation was calculated as the stimulation rate, where the unstimulated CD4+ T-cell population MFI was divided by the stimulated CD4+ T-cell population’s MFI. MFI becomes less as the antigen stimulates CD4+ T-lymphocytes, whereby ≥1 values indicate cell proliferation. The relative value of proliferation was considered positive, with at least 1% loss in the mean intensity of florescence of the CD4+ population, i.e. ≥1.01.

[2] = 0.1 μM purified molecule, 5 μM biotinylated TT, 250 μM test peptide, 24 h RT, OD 405 nm

| Substance | inhibition at 250 µM (HLA-DRβ1*0401) [%] | inhibition at 250 µM (HLA-DRβ1*1302; [2]) [%] | IC50 (HLA-DRβ1*0701) [µM] | inhibition at 250 µM (HLA-DRβ1*0701; [2]) [%] | inhibition at 250 µM (HLA-DRβ1*1101) [%] | IC50 (HLA-DRβ1*0401) [µM] | IC50 (HLA-DRβ1*1302) [µM] | IC50 (HLA-DRβ1*1101) [µM] | further results |
| --- | --- | --- | --- | --- | --- | --- | --- | --- | --- |
| LVEYLHGAAAIVKRK [Peptide 39118] | 13.5 | 31.7 | 15.2 | 90 | 48.2 | – | – | – | – |
| RKNYELLPNNCFEQV [Peptide 39112] | 95.8 | 14.1 | 29.2 | 76.4 | 55.4 | 7.26 | – | – | – |
| GCDFTKNTSPLFTKG [Peptide 39119] | 17.4 | 92.2 | – | 29.4 | 26.9 | – | 7.47 | – | – |
| KKSYDDVSFRVPPNL [Peptide 39115] | – | – | – | – | – | – | – | – | Binding percentage (HLA-DRβ1*0401): 12.98%; Binding percentage (HLA-DRβ1*1302; [2]): 12.00%; Binding percentage (HLA-DRβ1*0701; [2]): 9.86%; Binding percentage (HLA-DRβ1*1101): 20.02%; control group response (responders/8) ([1]; control group, n = 8): 0/8; frequency of response (responders, SI ≥2) ([1]; exposed individuals): 28%; stimulation index (SI), average response ([1]; exposed individuals, peptide 10 μg/mL, lysate 5 μg/mL, 96 h, CFSE, SI ≥2 positive): 2.018; responders according to relative proliferation values (MFI) ([1]; exposed individuals, positive ≥1.01): 50% |
| YNKIFYARVPQRIYQ [Peptide 39114] | – | ≥ 50 | 43.1 | – | – | 43.2 | 73.3 | 8.28 | – |
| EECFLQGFNLSGKKE [Peptide 39113] | 95.8 | 9.28 | – | 8.89 | 62.9 | 7.36 | – | 38.5 | – |
| LGIIEVLIPSLPKKI [Peptide 39117] | 33.1 | 95.4 | 11.5 | 98.6 | 51.1 | – | 6.65 | 134 | – |
| phytohaemagglutinin [PHA, reference compound] | – | – | – | – | – | – | – | – | control group individuals responding ([1]; control group): 100%; frequency of response (responders, SI ≥2) ([1]; exposed individuals): 96.6% |
| LTDLVMDHYNKIFYA [Peptide 39120] | 26.7 | 86 | – | 40.6 | 32.7 | – | 38 | – | – |
| KRLVAHFEFATTPDD [Peptide 39122] | 80.9 | 71.1 | – | 23.1 | 74.9 | 58.9 | – | 170 | – |
